Measurements reported in article doi:10.1101/2022.07.11.499659v1 (bioRxiv, 2022).

How the values were obtained:
[1] = molecular target: T1, α-Synuclein (αS) aggregation (Homo sapiens, UniProt P37840); assay: Spin-down assay / SDS-PAGE of soluble and insoluble αS fractions; type: biochemical; conditions: 100 μM αS aggregated four days, indicated molar ratios
[2] = molecular target: αS (Homo sapiens, UniProt P37840); assay: 2D HSQC; type: binding; conditions: 70 μM 15N αS, NS132 equimolar
[3] = test system: UA196 worms (human αS and GFP in DA neurons); assay: Confocal count of healthy DA neurons in UA196 worms, early treatment; type: in vivo, C. elegans; conditions: UA196, 50 μM on day two
[4] = molecular target: T1, α-Synuclein (αS) aggregation; assay: Thioflavin T; type: biochemical; conditions: 100 μM αS in 1 × PBS, ligand at equimolar ratio, four days
[5] = test system: NL5901 worms (αS-YFP in body wall muscle cells); assay: Confocal count of αS-YFP inclusions in NL5901 worms; type: in vivo, C. elegans; conditions: NL5901, 50 μM on day two

Antagonist activity by SDS-PAGE analysis [1] | binding site of NS132 on αS (residues with changed amide peaks) [2] | Effect on αS aggregation, ThT assay [4] | Compound | neuroprotective effect on degeneration of DA neurons [3] | number of inclusions [5] | % loss of the total number of DA neurons ([3]; up to 15 days)
poor antagonist of αS aggregation | – | – | Cc1ccc(NC(=O)c2ccc(NC(=O)c3ccc([N+](=O)[O-])c(NCCc4c[nH]c5ccccc45)n3)c(NCC3CCCCC3)n2)c(OCC(=O)OC(C)(C)C)n1 [NS132-P] | – | – | –
– | residues 10-20, 36-43, and 50,55,59 | most potent antagonist | Cc1ccc(NC(=O)c2ccc(NC(=O)c3ccc([N+](=O)[O-])c(NCCc4c[nH]c5ccccc45)n3)c(NCC3CCCCC3)n2)c(OCC(=O)O)n1 [NS132] | very good neuroprotective effect | decrease in the number of inclusions | –
– | – | potent antagonist of αS aggregation | Cc1ccc(NC(=O)c2ccc(NC(=O)c3ccc([N+](=O)[O-])c(NCCc4c[nH]c5ccccc45)n3)c(NCC3CCCCC3)n2)c(OCC(=O)NO)n1 [NS163] | remarkable neuroprotective effect | – | < 5%
